Patent publication US20260216138A1, “IDENTIFICATION OF OTUD7B INHIBITOR 7BI AND ITS APPLICATION IN REDUCING GROWTH OF NSCLC AND LEUKEMIA CELLS” (The University of North Carolina at Chapel Hill, priority 2023, published 2026)

Tests used:
[1] = biological target: T1, OTUD7B (Homo sapiens, UniProt Q6GQQ9); assay: Ubiquitin-AMC assay, OTUD7B; assay type: biochemical; conditions: 50 μM 7Bi, 300 nM OTUD7B, 2 uM ubiquitin-AMC
T1 construct: OTUD7B (residues 56-446); GST (N, cleaved yes); made in house; host or cells: E. coli BL21-Codon Plus (DE3)-RIL
T1 sequence (Q6GQQ9 56-446): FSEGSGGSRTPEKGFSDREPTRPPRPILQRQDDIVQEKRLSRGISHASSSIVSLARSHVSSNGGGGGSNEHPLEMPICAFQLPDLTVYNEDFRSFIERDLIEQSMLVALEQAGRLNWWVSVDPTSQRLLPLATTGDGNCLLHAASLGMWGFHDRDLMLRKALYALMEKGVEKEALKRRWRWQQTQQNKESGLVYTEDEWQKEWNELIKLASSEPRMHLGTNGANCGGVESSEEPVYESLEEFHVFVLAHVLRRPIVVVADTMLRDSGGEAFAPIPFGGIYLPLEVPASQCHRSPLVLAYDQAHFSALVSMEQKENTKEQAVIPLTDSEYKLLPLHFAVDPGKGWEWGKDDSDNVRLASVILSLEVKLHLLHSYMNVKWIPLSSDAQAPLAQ
Experimental: (§1) 50 μM 7Bi were incubated with 300 nM OTUD7B (residues 56-446), 10 μM OTUD7A (residues 1-462), 200 nM USP21 (residues 196-565), or 500 nM USP9X (residues 1551-1970) in reaction buffer (20 mM HEPES pH=8.0, 200 mM NaCl, 0.25 mg/mL BSA and 0.005% Tween-20) for 5 min at room temperature. Then, 2 uM ubiquitin-AMC was added to start the reaction. The fluorescence emission data was collected at an excitation wavelength of 355 nm and emission wavelength of 460 nm every 3 min. Reactions were completed three times to generate the error bars.

[2] = biological target: T2, OTUD7A (Homo sapiens, UniProt Q8TE49); assay: Ubiquitin-AMC assay, OTUD7A; assay type: biochemical; conditions: 50 μM 7Bi, 10 μM OTUD7A, 2 uM ubiquitin-AMC
T2 construct: OTUD7A (residues 1-462); GST (N, cleaved yes); made in house; host or cells: E. coli BL21-Codon Plus (DE3)-RIL
T2 sequence (Q8TE49 1-462): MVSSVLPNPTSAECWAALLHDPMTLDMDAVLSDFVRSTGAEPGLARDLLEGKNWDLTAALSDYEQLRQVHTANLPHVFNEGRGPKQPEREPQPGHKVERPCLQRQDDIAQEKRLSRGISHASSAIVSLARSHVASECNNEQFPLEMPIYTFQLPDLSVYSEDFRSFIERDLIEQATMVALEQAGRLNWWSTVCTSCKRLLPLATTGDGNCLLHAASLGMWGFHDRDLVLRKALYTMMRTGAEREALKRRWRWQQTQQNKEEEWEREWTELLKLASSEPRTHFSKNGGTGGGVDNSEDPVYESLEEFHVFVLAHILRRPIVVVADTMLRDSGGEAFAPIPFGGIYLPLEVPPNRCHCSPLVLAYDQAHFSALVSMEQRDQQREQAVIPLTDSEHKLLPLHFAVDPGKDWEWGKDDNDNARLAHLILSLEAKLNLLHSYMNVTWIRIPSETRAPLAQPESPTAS
Experimental: as §1

[3] = tested on: A549 cells; assay: Colony formation / growth of A549 cells; assay type: cell-based; conditions: treated once for 10 days
Experimental: (§2) 500 cells from OTUD7B depleted A549 cells were seeded into each well of 6-well plates and cultured in the 37° C. incubator with 5% CO2 for 10-15 days until formation of visible colonies. Triplicates were performed. To test the effect of a given inhibitor on colony formation ability, 800 cells from A549, H520 and H1299 cell lines were seeded into each well of 6-well plates, respectively. Each inhibitor was added at indicated concentration the next day. Colonies were counted after 10 days of treatment. The colony staining method was as described. […] Colony numbers were counted manually. […]
(§3) 2,000 cells from indicated NSLC cell lines were seeded into each well of 96-well plates. Cell viability was measured 3 days post-treatment using MTT assays following manufacturer's instruction. […] Inhibitor was added the next day at indicated concentration and cell viability was measured after 3-day treatment. For cell proliferation assays in THP1, K562 and HL60 cell lines, 1×10^6 cells from each indicated cell line were seeded in 12.5 cm2 cell culture flask and cells were counted by hemocytometer under microscope at indicated time to monitor cell proliferation. […] Inhibitor was added the next day at indicated concentrations and cell number was counted after 3 days treatment. […]

[4] = tested on: H520 cells; assay: Colony formation / growth of H520 cells; assay type: cell-based; conditions: treated once for 10 days
Experimental: as §2, §3

[5] = tested on: HEK293 cells; assay: Cell viability by MTT assay in HEK293 cells; assay type: cell-based; conditions: 72 hrs
Experimental: 2,000 cells from indicated NSLC cell lines were seeded into each well of 96-well plates. Cell viability was measured 3 days post-treatment using MTT assays following manufacturer's instruction. For cell viability assays with inhibitor treatment, 2,000 cells from indicated NSLC and HEK293 cell lines were seeded in 96-well plate. Inhibitor was added the next day at indicated concentration and cell viability was measured after 3-day treatment. For cell proliferation assays in THP1, K562 and HL60 cell lines, 1×10^6 cells from each indicated cell line were seeded in 12.5 cm2 cell culture flask and cells were counted by hemocytometer under microscope at indicated time to monitor cell proliferation. To test inhibitor effects on THP1, K562 and HL60 cell growth, 2×10^5 cells were seeded in 12.5 cm2 cell culture flask. Inhibitor was added the next day at indicated concentrations and cell number was counted after 3 days treatment. Three independent experiments were performed to generate error bars.

[6] = tested on: OTUD7B; assay: OTUD7B protein levels by immunoblot; assay type: cell-based; conditions: 16 hrs
Experimental: Cells were harvested and lysed in EBC buffer (50 mM Tris pH 7.5, 120 mM NaCl, 0.5% NP-40) supplemented with protease inhibitor cocktail (EDTA-free, mini-tablet) (Bimake) and phosphatase inhibitor cocktail (Bimake) by rotating in the cold room for 10 min followed by high-speed centrifugation at 4° C. The protein concentrations in supernatants of whole cell lysates were measured by NanoDrop OneC using the Bio-Rad Bradford protein assay reagent. Equal amounts of whole cell lysates were resolved on SDS-PAGE and immunoblotted with indicated antibodies. For immunoprecipitation analysis, 1 mg of total cell lysate was incubated with the indicated beads for 3-4 hr at 4° C. The recovered immuno-complexes were washed thoroughly three times with NETN buffer (20 mM Tris, pH 8.0, 100 mM NaCl, 1 mM EDTA and 0.5% NP-40) before being resuspended in SDS sample buffer and resolved on SDS-PAGE and immunoblotted with indicated antibodies.

inhibition of hydrolysis of ubiquitin-AMC by OTUD7A [2]: but not its close family member OTUD7A
SMILES: Cc1cc(NC(=O)c2cnn(C)c2C(=O)Nc2cc(C)nn2C2CCCC2)n(C2CCCC2)n1 [7Bi]
inhibition of hydrolysis of ubiquitin-AMC by OTUD7B [1]: efficiently inhibited hydrolysis of ubiquitin-AMC
cell growth [3]: reduced growth
cell growth [4]: reduced growth
cell growth (MTT) [5]: reduced growth
OTUD7B protein levels ([6]; A549 cells): did not significantly affect OTUD7B protein levels
OTUD7B protein levels ([6]; HEK293 cells): did not significantly affect OTUD7B protein levels
